This is an account of results in the NIST ThermoML archive (doi:10.1021/acs.jced.8b00537).

± gives the expanded uncertainty stated by the source.

The conditions of the first data set: 333.15 K; 100 kPa; Liquid; Capillary tube (Ostwald / Ubbelohde) method.
By viscosity is commonly meant the internal friction of a fluid under shear. Consider `C=CCn1cc[n+](C)c1.O=S(=O)([N-]S(=O)(=O)C(F)(F)F)C(F)(F)F`, for which the viscosity stood at 11.62 ± 0.93 mPa·s.

As to `CCCC[N+]1(C)CCCC1.O=S(=O)([N-]S(=O)(=O)C(F)(F)F)C(F)(F)F`, the viscosity was 20.74 ± 1.7 mPa·s.

Consider `O=S(=O)([N-]S(=O)(=O)C(F)(F)F)C(F)(F)F.On1cc[n+](O)c1` [1,3-dihydroxyimidazolium bis(trifluoromethylsulfonyl)imide], for which the viscosity is recorded as 32.88 ± 2.7 mPa·s.

Take `CCCO` [propan-1-ol]: the viscosity is 0.892 ± 0.072 mPa·s.

For the compound `CC[S+](CC)CC.O=S(=O)([N-]S(=O)(=O)C(F)(F)F)C(F)(F)F` [triethylsulfonium bis((trifluoromethyl)sulfonyl)imide], the viscosity turned out to be 10.99 ± 0.88 mPa·s.

The same data set, now with this note: 333.15 K; 100 kPa; Liquid; Frequency=3 MHz; Single path-length method.
Usually speed of sound stands for the propagation velocity of pressure waves in the medium. As to `C=CCn1cc[n+](C)c1.O=S(=O)([N-]S(=O)(=O)C(F)(F)F)C(F)(F)F`, the speed of sound came to 1164.2 ± 6.2 m/s.

Turning to `CCCC[N+]1(C)CCCC1.O=S(=O)([N-]S(=O)(=O)C(F)(F)F)C(F)(F)F`, the speed of sound is 1193.6 ± 6.3 m/s.

In the case of `O=S(=O)([N-]S(=O)(=O)C(F)(F)F)C(F)(F)F.On1cc[n+](O)c1` [1,3-dihydroxyimidazolium bis(trifluoromethylsulfonyl)imide], the speed of sound was found to be 1120.7 ± 6.3 m/s.

Take `CCCO` [propan-1-ol]: the speed of sound is 1088.3 ± 6 m/s.

Turning to `CC[S+](CC)CC.O=S(=O)([N-]S(=O)(=O)C(F)(F)F)C(F)(F)F` [triethylsulfonium bis((trifluoromethyl)sulfonyl)imide], the speed of sound is 1175.9 ± 6.1 m/s.

Staying with this data set, now noted: 333.15 K; 100 kPa; Liquid; Vibrating tube method.
In general, mass density refers to the mass of a sample divided by its volume. `C=CCn1cc[n+](C)c1.O=S(=O)([N-]S(=O)(=O)C(F)(F)F)C(F)(F)F`: the mass density stood at 1464.56 ± 3.1 kg/m3.

With `CCCC[N+]1(C)CCCC1.O=S(=O)([N-]S(=O)(=O)C(F)(F)F)C(F)(F)F`, the mass density was found to be 1363.6 ± 3.1 kg/m3.

For `O=S(=O)([N-]S(=O)(=O)C(F)(F)F)C(F)(F)F.On1cc[n+](O)c1` [1,3-dihydroxyimidazolium bis(trifluoromethylsulfonyl)imide], the mass density was determined as 1699.71 ± 4.2 kg/m3.

With `CCCO` [propan-1-ol], the mass density was 770.44 ± 1.6 kg/m3.

As for `CC[S+](CC)CC.O=S(=O)([N-]S(=O)(=O)C(F)(F)F)C(F)(F)F` [triethylsulfonium bis((trifluoromethyl)sulfonyl)imide], the mass density amounted to 1426.57 ± 2.9 kg/m3.

The same data set, now with this note: 338.15 K; 100 kPa; Liquid; Capillary tube (Ostwald / Ubbelohde) method.
On to `C=CCn1cc[n+](C)c1.O=S(=O)([N-]S(=O)(=O)C(F)(F)F)C(F)(F)F`, for which the viscosity was 10.28 ± 0.83 mPa·s.

Regarding `CCCC[N+]1(C)CCCC1.O=S(=O)([N-]S(=O)(=O)C(F)(F)F)C(F)(F)F`, the viscosity is listed as 18.03 ± 1.5 mPa·s.

In the case of `O=S(=O)([N-]S(=O)(=O)C(F)(F)F)C(F)(F)F.On1cc[n+](O)c1` [1,3-dihydroxyimidazolium bis(trifluoromethylsulfonyl)imide], the viscosity is 27.69 ± 2.2 mPa·s.

With `CCCO` [propan-1-ol], the viscosity was found to be 0.81 ± 0.065 mPa·s.

Turning to `CC[S+](CC)CC.O=S(=O)([N-]S(=O)(=O)C(F)(F)F)C(F)(F)F` [triethylsulfonium bis((trifluoromethyl)sulfonyl)imide], the viscosity stood at 9.726 ± 0.78 mPa·s.

Staying with this data set, now noted: 338.15 K; 100 kPa; Liquid; Frequency=3 MHz; Single path-length method.
Turning to `C=CCn1cc[n+](C)c1.O=S(=O)([N-]S(=O)(=O)C(F)(F)F)C(F)(F)F`, the speed of sound is 1153.8 ± 6.2 m/s.

Consider `CCCC[N+]1(C)CCCC1.O=S(=O)([N-]S(=O)(=O)C(F)(F)F)C(F)(F)F`, for which the speed of sound amounted to 1183.2 ± 6.3 m/s.

`O=S(=O)([N-]S(=O)(=O)C(F)(F)F)C(F)(F)F.On1cc[n+](O)c1` [1,3-dihydroxyimidazolium bis(trifluoromethylsulfonyl)imide]: the speed of sound is given as 1110.4 ± 6.3 m/s.

Turning to `CCCO` [propan-1-ol], the speed of sound amounted to 1071.5 ± 6 m/s.

Take `CC[S+](CC)CC.O=S(=O)([N-]S(=O)(=O)C(F)(F)F)C(F)(F)F` [triethylsulfonium bis((trifluoromethyl)sulfonyl)imide]: the speed of sound is recorded as 1166.8 ± 6.1 m/s.

Staying with this data set, now noted: 338.15 K; 100 kPa; Liquid; Vibrating tube method.
As to `C=CCn1cc[n+](C)c1.O=S(=O)([N-]S(=O)(=O)C(F)(F)F)C(F)(F)F`, the mass density came out at 1459.65 ± 3.1 kg/m3.

On to `CCCC[N+]1(C)CCCC1.O=S(=O)([N-]S(=O)(=O)C(F)(F)F)C(F)(F)F`, for which the mass density is listed as 1359.28 ± 3.1 kg/m3.

For `O=S(=O)([N-]S(=O)(=O)C(F)(F)F)C(F)(F)F.On1cc[n+](O)c1` [1,3-dihydroxyimidazolium bis(trifluoromethylsulfonyl)imide], the mass density is 1694.01 ± 4.2 kg/m3.

As for `CCCO` [propan-1-ol], the mass density worked out at 766.03 ± 1.5 kg/m3.

Consider `CC[S+](CC)CC.O=S(=O)([N-]S(=O)(=O)C(F)(F)F)C(F)(F)F` [triethylsulfonium bis((trifluoromethyl)sulfonyl)imide], for which the mass density was 1421.87 ± 2.9 kg/m3.

The same data set, now with this note: 343.15 K; 100 kPa; Liquid; Capillary tube (Ostwald / Ubbelohde) method.
As for `C=CCn1cc[n+](C)c1.O=S(=O)([N-]S(=O)(=O)C(F)(F)F)C(F)(F)F`, the viscosity turned out to be 9.125 ± 0.73 mPa·s.

For the compound `CCCC[N+]1(C)CCCC1.O=S(=O)([N-]S(=O)(=O)C(F)(F)F)C(F)(F)F`, the viscosity stood at 15.8 ± 1.3 mPa·s.

`O=S(=O)([N-]S(=O)(=O)C(F)(F)F)C(F)(F)F.On1cc[n+](O)c1` [1,3-dihydroxyimidazolium bis(trifluoromethylsulfonyl)imide]: the viscosity turned out to be 23.59 ± 1.9 mPa·s.

For the compound `CCCO` [propan-1-ol], the viscosity is listed as 0.737 ± 0.059 mPa·s.

`CC[S+](CC)CC.O=S(=O)([N-]S(=O)(=O)C(F)(F)F)C(F)(F)F` [triethylsulfonium bis((trifluoromethyl)sulfonyl)imide]: the viscosity was 8.659 ± 0.69 mPa·s.
